Results published in patent EP1650209A1, “Griseusin derivatives and their use as antitumor agents” (Oncotest GmbH, priority 2004, dated 2006).
In brackets after ≈: the same amount, converted by molar mass.

Key:
Assay in all cases: Proliferation inhibition of cancer cells (propidium iodide fluorescence)
Type in all cases: cell-based, human
[1] = tested on: LXFA 289L; settings: Lung, non small cell, LXFA 289L cell line
Description: (§1) Using various human cancer cells in vitro, the concentrations of the test compounds (A, B, C, D, E, F), which inhibit the proliferation of cancer cells by 50% (IC50) and 70% (IC70) were determined. Specifically, each cell line of bladder cancer (BXF 1218L and T-24), glioblastoma (CNXF 498NL), colic cancer (HCT-116 and HT-29), gastric cancer (GXF 251 L), head and neck cancer (HNXF 536L), non small cell lung cancer (LXF 1121L, LXF 289L, LXF 526L, LXF 529L, LXF 629L and H-460), mammary cancer (MAXF 401NL, MCF-7, MDA-231 and MDA-468), melanoma (MEXF 276L, MEXF 394NL, MEXF 462NL, MEXF 514L and MEXF 520L), ovary cancer (OVXF 1619L, OVXF 899L and OVCAR-3), pancreatic cancer (PAXF 1657L and PANC-1), prostate cancer (22Rv1, DU-145, LNCaP and PC3M), pleuramesothelioma (PXF 1752L), renal cancer (RXF 1781 L, RXF 393NL, RXF 486L and RXF 944L), and uterine cancer (UXF 1138L) is added to a 96-well microtiter plate at a density of 3.6-11.2x10^3 cells per well in RPMI-1640 medium containing 10% fetal calf serum and 0.1% gentamicin and incubated for 24 hours. After 24 hours RPMI-1640 medium containing 10% fetal calf serum and 0.1% gentamicin, together with a test compound, is added thereto. Then, this plate is incubated at 37°C for 4 days in a humidified atmosphere of air containing 5% CO2. Thereafter, the cell culture medium with or without drug was replaced by 200 µl of an aqueous PI solution (7 µg/ml propidium iodide). Applying a freeze thaw cycle to permeabilize intact cell walls, staining of DNA was achieved, and the fluorescence of each well was measured using the Cy-tofluor 4000 microplate reader (excitation 530 nm, emission 620 nm), giving a direct relationship to the total cell number. Proliferation inhibition is expressed as test versus untreated control (T/C-value [%]). IC50 and IC70 values were determined by plotting compound concentration versus cell viability.

[2] = tested on: GXF 251 L
Description: as §1

[3] = tested on: LXFA 526L; settings: Lung, non small cell, LXFA 526L cell line
Description: as §1

[4] = tested on: LXFL 529L; settings: LXFL 529L cell line
Description: as §1

[5] = tested on: MEXF 462NL; settings: MEXF 462NL cell line
Description: as §1

[6] = tested on: CNXF 498NL; settings: Glioblastoma, CNXF 498NL cell line
Description: as §1

[7] = tested on: LNCaP; settings: Prostate, LNCaP cell line
Description: as §1

[8] = tested on: MDA-231; settings: Breast, MDA-231 cell line
Description: as §1

[9] = tested on: OVCAR-3; settings: Ovary, OVCAR-3 cell line
Description: as §1

[10] = tested on: H-460; settings: Lung, non small cell, H-460 cell line
Description: as §1

[11] = tested on: MEXF 520L; settings: Melanoma, MEXF 520L cell line
Description: as §1

[12] = tested on: PXF 1752L; settings: Pleuramesothelio, PXF 1752L cell line
Description: as §1

[13] = tested on: T-24; settings: Bladder, T-24 cell line
Description: as §1

[14] = tested on: PANC-1; settings: Pancreas, PANC-1 cell line
Description: as §1

[15] = tested on: OVXF 1619L; settings: Ovary, OVXF 1619L cell line
Description: as §1

[16] = tested on: MEXF 514L; settings: Melanoma, MEXF 514L cell line
Description: as §1

[17] = tested on: MAXF 401NL; settings: MAXF 401NL cell line
Description: as §1

[18] = tested on: RXF 944L; settings: Kidney, RXF 944L cell line
Description: as §1

[19] = tested on: LXFA 629L; settings: Lung, non small cell, LXFA 629L cell line
Description: as §1

[20] = tested on: DU-145; settings: Prostate, DU-145 cell line
Description: as §1

[21] = tested on: MDA-468; settings: Breast, MDA-468 cell line
Description: as §1

[22] = tested on: PAXF 1657L; settings: Pancreas, PAXF 1657L cell line
Description: as §1

[23] = tested on: RXF 1781 L; settings: Kidney, RXF 1781 L cell line
Description: as §1

[24] = tested on: MCF-7; settings: Breast, MCF-7 cell line
Description: as §1

Compound: C[C@@H]1CC(=O)[C@@H](O)[C@]2(O1)O[C@@H]1CC(=O)O[C@@H]1C1=C2C(=O)c2c(O)cccc2C1=O [Compound B, 4'-dehydro-deacetylgriseusin A]
- IC50 [1]: 8.770 µg/mL (≈ 21.9 µM)
- IC70 [1]: 14.801 µg/mL (≈ 37 µM)
- IC50 value ([2]; GXF 251L cell line, 4 days): 0.106 µg/mL (≈ 0.265 µM)
- IC50 ([2]; Stomach, GXF 251 L cell line): 0.106 µg/mL (≈ 0.265 µM)
- IC70 ([2]; Stomach, GXF 251 L cell line): 0.178 µg/mL (≈ 0.445 µM)
- IC50 [3]: 0.129 µg/mL (≈ 0.322 µM)
- IC70 [3]: 0.206 µg/mL (≈ 0.515 µM)
- IC50 value ([4]; 4 days): 1.068 µg/mL (≈ 2.67 µM)
- IC50 ([4]; Lung, non small cell): 1.068 µg/mL (≈ 2.67 µM)
- IC70 ([4]; Lung, non small cell): 1.814 µg/mL (≈ 4.53 µM)
- IC50 value ([5]; 4 days): 0.086 µg/mL (≈ 0.215 µM)
- IC50 ([5]; Melanoma): 0.086 µg/mL (≈ 0.215 µM)
- IC70 ([5]; Melanoma): 0.158 µg/mL (≈ 0.395 µM)
- IC50 [6]: 0.107 µg/mL (≈ 0.267 µM)
- IC70 [6]: 0.184 µg/mL (≈ 0.46 µM)
- IC50 [7]: 0.107 µg/mL (≈ 0.267 µM)
- IC70 [7]: 0.175 µg/mL (≈ 0.437 µM)
- IC50 [8]: 0.068 µg/mL (≈ 0.17 µM)
- IC70 [8]: 0.136 µg/mL (≈ 0.34 µM)
- IC50 [9]: 0.521 µg/mL (≈ 1.3 µM)
- IC70 [9]: 1.309 µg/mL (≈ 3.27 µM)
- IC50 [10]: 0.490 µg/mL (≈ 1.22 µM)
- IC70 [10]: 1.042 µg/mL (≈ 2.6 µM)
- IC50 [11]: 0.102 µg/mL (≈ 0.255 µM)
- IC70 [11]: 0.175 µg/mL (≈ 0.437 µM)
- IC50 [12]: 0.124 µg/mL (≈ 0.31 µM)
- IC70 [12]: 0.208 µg/mL (≈ 0.52 µM)
- IC50 [13]: 0.507 µg/mL (≈ 1.27 µM)
- IC70 [13]: 1.137 µg/mL (≈ 2.84 µM)
- IC50 [14]: 0.117 µg/mL (≈ 0.292 µM)
- IC70 [14]: 0.200 µg/mL (≈ 0.5 µM)
- IC50 [15]: 0.242 µg/mL (≈ 0.604 µM)
- IC70 [15]: 0.916 µg/mL (≈ 2.29 µM)
- IC50 [16]: 0.087 µg/mL (≈ 0.217 µM)
- IC70 [16]: 0.149 µg/mL (≈ 0.372 µM)
- IC50 ([17]; Breast): 0.090 µg/mL (≈ 0.225 µM)
- IC70 ([17]; Breast): 0.160 µg/mL (≈ 0.4 µM)
- IC50 value ([17]; 4 days): 0.09 µg/mL (≈ 0.225 µM)
- IC50 [18]: 0.038 µg/mL (≈ 0.0949 µM)
- IC70 [18]: 0.107 µg/mL (≈ 0.267 µM)
- IC50 [19]: 0.234 µg/mL (≈ 0.585 µM)
- IC70 [19]: 0.671 µg/mL (≈ 1.68 µM)
- IC50 [20]: 0.251 µg/mL (≈ 0.627 µM)
- IC70 [20]: 0.669 µg/mL (≈ 1.67 µM)
- IC50 [21]: 0.060 µg/mL (≈ 0.15 µM)
- IC70 [21]: 0.127 µg/mL (≈ 0.317 µM)
- IC50 [22]: 0.094 µg/mL (≈ 0.235 µM)
- IC70 [22]: 0.179 µg/mL (≈ 0.447 µM)
- IC50 [23]: 0.407 µg/mL (≈ 1.02 µM)
- IC70 [23]: 1.134 µg/mL (≈ 2.83 µM)
- IC50 [24]: 0.138 µg/mL (≈ 0.345 µM)
- IC70 [24]: 0.210 µg/mL (≈ 0.525 µM)
